According to patent publication US20080045584A1, “Use of Docetaxel for Treating Hepatocellular Carcinoma” (priority 1999, published 2008):
Like-named read-outs stand apart in the source and are kept apart here.

What was measured:
[1] = system: hepatocellular carcinomas; settings: cited from earlier work
hepatocellular carcinoma = settings: phase II clinical trial; cited from earlier work
Hepa 1-6 cells [2] = assay: Flow cytometric analysis of DNA content (cell cycle, sub-G0/G1); type: cell-based, murine; settings: for % of apoptotic (sub-G0/G1) cells: Hepa 1-6, 24 hrs
Method: (§1) Lysing buffer (0.5% Triton X-100, 0.2 μg/ml Na2EDTA.2H2O, and 1% bovine serum albumin in PBS) was added to the cell pellets which were then left on ice for 15 minutes. 100% methanol pre-cooled to −20° C. was then added to the mixture, which was then centrifuged at 300×g for 5 minutes. The supernatant was discarded and the cell pellet was washed with PBS. The washed pellet was stained with a DNA staining solution (50 μg/ml propidium iodide, and 5 kunitz/ml of RNase A) for 30 minutes at 4° C. in the dark. The DNA content of each cell was measured using a Becton Dickinson FACS Calibur flow cytometer as set out below.
(§2) Cells (10000) were analyzed on a Becton Dickinson FACS Calibur flow cytometer using an argon-ion laser (15 mWatt) with incident beam at 488 nm. For PI exclusion assay, red fluorescence was collected through a 585 nm filter and the cell debris signals were removed by FSC-SSC gating. Data were acquired and analyzed using FACS/CELL Quest software on a Power Macintosh 7600/120 computer. Apoptotic cells and cells at specific cycle phases were determined by ModFit LT software.
(§3) Table 1 gives figures for cell membrane permeability of the hepatoma cells, following treatment with paclitaxel and docetaxel. Table 2 details the percentage of apoptotic (sub-G0/G1) cells found after paclitaxel and docetaxel treatment.

Hepa 1-6 cells [3] = assay: Propidium iodide (PI) exclusion assay, flow cytometry; type: cell-based, murine
Method: (§4) Cells were grown on 5-cm^2 flasks (CORNING) and treated with paclitaxel and docetaxel as set out above. Propidium iodide (10 μg/ml) was then added for 15 minutes incubation at 37° C. Then, medium was collected prior to harvest of the adherent cells. Both suspended and attached cells were collected and resuspended with 500 μl PBS for flow cytometry analysis as set out below. Debris signals were removed by FSC-SSC gating.
as §2
(§5) Data are mean±standard error of mean from duplicated sample of at least three independent experiments. Cells were treated with drugs for 24-72 hours, and membrane permeability was measured by flowcytometric analysis of propidium exclusion in viable hepatoma cells. Data are the percentage of cells with intact cell membrane as compared to control

Hep G2 cells [4] = assay: DNA fragmentation electrophoresis analysis; type: cell-based, human; settings: Hep G2, 0.1 and 1 μM, 72 hours
Method: DNA fragmentation assessment was according to the method Herrmann et al, Nucleic Acids Res., 22, 5506-5507, 1994.
Briefly, HEP G2 cells (2×10^7) were treated for 72 hours with paclitaxel and docetaxel as set out above and centrifuged. The thus obtained cell pellets were resuspended with NP-40 lysis buffer (1% NP-40 in 20 mM EDTA, 50 mM Tris-HCl, pH 7.5). After lysis of cells for a few seconds, the supernatants were collected (5 minutes at 1600×g). The extraction was repeated with the same lysis buffer. SDS (final concentration 1%) and RNase were added (final concentration 2.5 μg/μl) to supernatants and incubated for 2 hours at 56° C. followed by digestion with proteinase K (2.5 μg/μl) for 2 hours at 37° C. Then, the mixtures were added to 10 M ammonium acetate prior to 100% ethanol precipitation for 30 minutes at −20° C. The DNA was collected by centrifugation (10 min at 12000 ×g) followed by electrophoresis on 1.5% agarose gel.
In FIG. 3, M is a 100 base pair marker. […] Lanes 2 and 3 show mean paclitaxel (0.1 and 1 μM) treatment groups. Lanes 4 and 5 show mean docetaxel (0.1 and 1 μM) treatment groups.

Hep G2 cells [5] = assay: Cell viability study: MTT assay; type: cell-based, human; settings: Homo sapiens, HepG2, Hep G2, 10 μM, read-out: viability, % of control
Method: The experiments detailed below involve human hepatoma cell lines Hep3B (ATCC designation HB 8064), HepG2 (ATCC designation HB 8065) and HA22T/VGH, and murine hepatoma cell line Hepa 1-6. These cells were cultured in DMEM (GIBCO, BRL) containing 10% fetal bovine serum (Hyclone), 0.01 mg/ml gentamycin and 0.1 mM non-essential amino acid. Cells were grown in a CO2 incubator at 37° C., with 5% CO2 and 95% filtered air.
Paclitaxel was dissolved in dimethylsulfoxide (DMSO) and docetaxel was dissolved in ethanol as stock solutions. The final concentration of vehicle was less than 0.1%.
Cells were cultured in a 96 well cell culture cluster (COSTAR) at a density of 4×10^4 cells/ml. After drug treatment for 24 hours or 72 hours, medium was discarded and replaced with an equal volume (100 μl) of fresh medium containing MTT (0.456 mg/ml; 3-[4,5-Dimethylthiazol-2-yl]2,5-diphenyl-tetrazolium bromide) and incubated for 1.5 hours at 37° C. The fresh medium was then discarded, and 100 μl DMSO was then added. Cell viability was determined by colorimetric comparison by reading OD values from a microplate reader (SPECTRA MAX250) at an absorption wavelength of 570 nm.
Data are the mean i standard error of mean from duplicate samples of three independent experiments.

Hep 3B cells [6] = assay: Propidium iodide (PI) exclusion assay, flow cytometry; type: cell-based, human
Method: as §4, §2, §5

HA22T/VGH cells [7] = assay: as above; type: cell-based, human
Method: as §4, §2, §5

Hep G2 cells [8] = assay: as above; type: cell-based, human
Method: as §4, §2, §5

Hep 3B cells [9] = assay: Flow cytometric analysis of DNA content (cell cycle, sub-G0/G1); type: cell-based, human; settings: for % of apoptotic (sub-G0/G1) cells: 72 hrs
Method: as §1, §2, §3

HA22T/VGH cells [10] = assay: as above; type: cell-based, human; settings: for % of apoptotic (sub-G0/G1) cells: 72 hrs
Method: as §1, §2, §3

Hep G2 cells [11] = assay: as above; type: cell-based, human; settings: Hep G2, 1 μM, 24 hours
Method: as §1, §2, §3

COc1cc2c(cc1O)CC[C@@H]1[C@@H]2CC[C@]2(C)[C@@H](O)CC[C@@H]12 [2-methoxyestradiol]
tolerability ([1]; mice, 1 month of daily treatment): well tolerated | activity against hepatocellular carcinomas ([1]; mouse, in vivo): active

CC(=O)O[C@H]1C(=O)[C@@]2(C)[C@H]([C@H](OC(=O)c3ccccc3)[C@]3(O)C[C@H](OC(=O)[C@H](O)[C@@H](NC(=O)c4ccccc4)c4ccccc4)C(C)=C1C3(C)C)[C@]1(OC(C)=O)CO[C@@H]1C[C@@H]2O [Paclitaxel]
anti-cancer effect in HCC patients (hepatocellular carcinoma): no significant anti-cancer effect | effect on cell cycle progression (Hepa 1-6 cells [2]; Hepa 1-6, 0.1 μM and 1 μM, 24 hours): G2/M phase arrest | cell cycle profile (Hepa 1-6 cells [2]; Hepa 1-6, 0.1 μM and 1 μM, 72 hours): most of the cells were dead | % of apoptotic (sub-G0/G1) cells (Hepa 1-6 cells [2]; 0.01 mM (text: μM)): 24.02% | % of apoptotic (sub-G0/G1) cells (Hepa 1-6 cells [2]; 0.1 mM (text: μM)): 55.64% | % of apoptotic (sub-G0/G1) cells (Hepa 1-6 cells [2]; 1 mM (text: μM)): 64.38% | percentage of cells with intact cell membrane as compared to control (Hepa 1-6 cells [3]; Hepa 1-6, 24 hrs, 0.01 μM): 93.17 ± 3.8% | percentage of cells with intact cell membrane as compared to control (Hepa 1-6 cells [3]; Hepa 1-6, 24 hrs, 0.1 μM): 67.20 ± 4.4% | percentage of cells with intact cell membrane as compared to control (Hepa 1-6 cells [3]; Hepa 1-6, 24 hrs, 1 μM): 62.65 ± 7.6% | percentage of cells with intact cell membrane as compared to control (Hepa 1-6 cells [3]; Hepa 1-6, 72 hrs, 0.01 μM): 62.95 ± 5.6% | percentage of cells with intact cell membrane as compared to control (Hepa 1-6 cells [3]; Hepa 1-6, 72 hrs, 0.1 μM): 27.79 ± 1.3% | percentage of cells with intact cell membrane as compared to control (Hepa 1-6 cells [3]; Hepa 1-6, 72 hrs, 1 μM): 15.51 ± 1.0% | DNA fragmentation (agarose gel, FIG. 3) (Hep G2 cells [4]): induced DNA fragmentation | viability at 10 µM (Hep G2 cells [5]; 24 hours): 61.8% | viability at 10 µM (Hep G2 cells [5]; 72 hours): 39.5% | percentage of cells with intact cell membrane as compared to control (Hep 3B cells [6]; 24 hrs, 0.01 μM): 77.35 ± 11.7% | percentage of cells with intact cell membrane as compared to control (Hep 3B cells [6]; 24 hrs, 0.1 μM): 63.50 ± 4.0% | percentage of cells with intact cell membrane as compared to control (Hep 3B cells [6]; 24 hrs, 1 μM): 52.28 ± 4.1% | percentage of cells with intact cell membrane as compared to control (Hep 3B cells [6]; 72 hrs, 0.01 μM): 57.00 ± 7.9% | percentage of cells with intact cell membrane as compared to control (Hep 3B cells [6]; 72 hrs, 0.1 μM): 8.09 ± 2.3% | percentage of cells with intact cell membrane as compared to control (Hep 3B cells [6]; 72 hrs, 1 μM): 1.90 ± 0.3% | percentage of cells with intact cell membrane as compared to control (HA22T/VGH cells [7]; 24 hrs, 0.01 μM): 94.08 ± 18.6% | percentage of cells with intact cell membrane as compared to control (HA22T/VGH cells [7]; 24 hrs, 0.1 μM): 40.03 ± 7.8% | percentage of cells with intact cell membrane as compared to control (HA22T/VGH cells [7]; 24 hrs, 1 μM): 34.24 ± 8.3% | percentage of cells with intact cell membrane as compared to control (HA22T/VGH cells [7]; 72 hrs, 0.01 μM): 92.58 ± 21.3% | percentage of cells with intact cell membrane as compared to control (HA22T/VGH cells [7]; 72 hrs, 0.01 μM, listed as paclitaxel): 92.58% | percentage of cells with intact cell membrane as compared to control (HA22T/VGH cells [7]; 72 hrs, 0.1 μM): 93.38 ± 32.5% | percentage of cells with intact cell membrane as compared to control (HA22T/VGH cells [7]; 72 hrs, 1 μM): 49.32 ± 8.3% | percentage of cells with intact cell membrane as compared to control (Hep G2 cells [8]; Hep G2, 24 hrs, 0.01 μM): 93.63 ± 1.1% | percentage of cells with intact cell membrane as compared to control (Hep G2 cells [8]; Hep G2, 24 hrs, 0.1 μM): 85.71 ± 6.8% | percentage of cells with intact cell membrane as compared to control (Hep G2 cells [8]; Hep G2, 24 hrs, 1 μM): 66.71 ± 7.2% | percentage of cells with intact cell membrane as compared to control (Hep G2 cells [8]; Hep G2, 72 hrs, 0.01 μM): 56.58 ± 28.7% | percentage of cells with intact cell membrane as compared to control (Hep G2 cells [8]; Hep G2, 72 hrs, 0.1 μM): 43.79 ± 11.7% | percentage of cells with intact cell membrane as compared to control (Hep G2 cells [8]; Hep G2, 72 hrs, 1 μM): 13.27 ± 4.3% | effect on cell cycle progression (Hep 3B cells [9]; 0.1 μM or 1 μM, 24 hours): G2/M arrest | % of apoptotic (sub-G0/G1) cells (Hep 3B cells [9]; 0.1 mM (text: μM)): 38.37% | % of apoptotic (sub-G0/G1) cells (Hep 3B cells [9]; 1 mM (text: μM)): 47.01% | % of apoptotic (sub-G0/G1) cells (HA22T/VGH cells [10]; 0.1 mM (table head; text: μM)): 0% | % of apoptotic (sub-G0/G1) cells (HA22T/VGH cells [10]; 0.1 mM (table head; text: μM), listed as paclitaxel): No significant sub-G0/G1 population | % of apoptotic (sub-G0/G1) cells (HA22T/VGH cells [10]; 1 mM (table head; text: μM)): 0% | % of apoptotic (sub-G0/G1) cells (HA22T/VGH cells [10]; 1 mM (table head; text: μM), listed as paclitaxel): No significant sub-G0/G1 population | effect on cell cycle progression (HA22T/VGH cells [10]; increasing concentrations 0.001 μM to 1 μM, 24 hours): elevated percentage of G2/M cells | effect on cell cycle progression (DNA histogram) (Hep G2 cells [11]): obvious G2/M phase arrest
